Literature values, collected in patent US20080031932A1, “Transdermal atomoxetine formulations and associated methods” (Watson Laboratories, Inc., priority 2006, published 2008).

Key:
[1] = system: other receptor systems
[2] = target: serotonin reuptake (Homo sapiens, UniProt P31645)
[3] = target: norepinephrine reuptake transporter (Homo sapiens, UniProt P23975); settings: compared to atomoxetine
norepinephrine reuptake transporter, sequence (P23975 whole entry): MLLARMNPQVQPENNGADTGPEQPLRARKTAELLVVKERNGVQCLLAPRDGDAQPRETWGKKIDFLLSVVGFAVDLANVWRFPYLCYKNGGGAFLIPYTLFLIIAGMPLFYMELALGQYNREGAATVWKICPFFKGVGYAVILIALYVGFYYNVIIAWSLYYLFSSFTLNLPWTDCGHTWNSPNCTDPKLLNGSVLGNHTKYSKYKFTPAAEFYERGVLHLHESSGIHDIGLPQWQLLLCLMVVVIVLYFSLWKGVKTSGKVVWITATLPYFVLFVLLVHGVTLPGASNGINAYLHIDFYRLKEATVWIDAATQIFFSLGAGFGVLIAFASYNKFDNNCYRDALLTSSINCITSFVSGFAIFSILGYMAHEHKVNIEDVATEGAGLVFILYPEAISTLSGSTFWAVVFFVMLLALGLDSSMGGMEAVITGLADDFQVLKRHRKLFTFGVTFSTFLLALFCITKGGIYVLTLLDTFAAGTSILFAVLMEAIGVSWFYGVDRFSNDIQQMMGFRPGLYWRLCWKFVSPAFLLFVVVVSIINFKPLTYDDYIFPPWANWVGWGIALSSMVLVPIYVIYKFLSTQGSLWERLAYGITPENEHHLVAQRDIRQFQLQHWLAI

serotonin reuptake, sequence (P31645 whole entry): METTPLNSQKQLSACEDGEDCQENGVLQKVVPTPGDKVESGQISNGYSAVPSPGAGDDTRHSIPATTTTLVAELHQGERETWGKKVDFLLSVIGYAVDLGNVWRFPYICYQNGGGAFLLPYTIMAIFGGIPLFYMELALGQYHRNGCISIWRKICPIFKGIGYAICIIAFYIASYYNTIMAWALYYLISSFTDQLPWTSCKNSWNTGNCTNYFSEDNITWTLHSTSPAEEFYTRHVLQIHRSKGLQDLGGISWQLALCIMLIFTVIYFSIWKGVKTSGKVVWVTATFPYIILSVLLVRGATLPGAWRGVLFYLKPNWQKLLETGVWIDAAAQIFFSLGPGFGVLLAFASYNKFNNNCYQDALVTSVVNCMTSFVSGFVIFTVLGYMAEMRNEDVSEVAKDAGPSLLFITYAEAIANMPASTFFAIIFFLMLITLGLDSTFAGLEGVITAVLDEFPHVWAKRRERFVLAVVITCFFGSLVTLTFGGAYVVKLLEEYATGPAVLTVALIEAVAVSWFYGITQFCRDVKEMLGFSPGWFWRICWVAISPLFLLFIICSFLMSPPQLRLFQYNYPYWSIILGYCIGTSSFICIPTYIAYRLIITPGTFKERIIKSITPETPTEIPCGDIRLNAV

SMILES: CNCCC(Oc1ccccc1C)c1ccccc1 (single isomer, unassigned; (-)) [atomoxetine, (−)-N-methyl-3-phenyl-3-(o-tolyloxy)-propylamine]
- plasma half-life (individuals having normal activity in the CYP2D6 pathway): about 5 hours
- half-life (individuals with reduced activity in the CYP2D6 pathway (poor metabolizers)): about 24 hours

SMILES: CNCCC(Oc1ccc(O)cc1C)c1ccccc1 (stereo not drawn) [Example 4HA, 4-hydroxyatomoxetine]
- affinity to other receptor systems [1]: little affinity
- serotonin reuptake inhibition [2]: pharmacologically active serotonin reuptake inhibitor

SMILES: Cc1ccccc1OC(CCN)c1ccccc1 (stereo not drawn) [NDA, N-desmethylatomoxetine]
- affinity to other receptor systems [1]: little affinity
- inhibitory activity to the norepinephrine reuptake transporter [3]: less active
